According to patent EP2389922A1, “Cyclohexyl carbamate compounds as anti-ageing actives” (Symrise AG, priority 2010, dated 2011):

Key:
SIRT1 = SIRT1 assay: stimulation of SIRT1 expression in NHDF cells (immunofluorescence); assay type: cell-based, human; conditions: concentration 30 µM; NHDF cells treated 48 h; mean values of at least 2 independent tests
Procedure: NHDF cells (normal human dermal fibroblasts) were seeded in 96-well plates. After 24 h cultivation at 37 °C and 5% CO2 in DMEM (Dulbecco's Modified Eagle Medium), cells were treated with test substances for another 48 h. After washing the cells with PBS (phosphate buffered saline), the cells were fixed with paraformaldehyde and permeabilized. Then they were washed again and blocked with BSA (bovine serum albumen), followed by incubation with […]. After extensive washing, the fluorescence is measured in a microplate reader and fluorescence images were recorded on a fluorescence microscope with an attached […]. The stimulation of SIRT1 expression was calculated by: StimulationofSIRT1expression[%] = ((RFUtestesubstance−RFUbackground)/(RFUcontrol−RFUbackground)×100)−100 [formula] RFU test substance = relative fluorescent units of the wells with test substance, stained completely RFU control = relative fluorescent units of the wells without test substance, stained completely RFU background = relative fluorescent units of the wells without test substance, stained only with secondary antibody. Table Example 2: Stimulation of SIRT1 expression by the individual substances (mean values of at least 2 independent tests)

isolated 20S proteasome = isolated 20S proteasome (Homo sapiens, UniProt P28074); assay: Measurement of proteasome activity using isolated proteasome (chymotrypsin-like activity, MCA liberation); assay type: biochemical; conditions: mean values of 3 independent tests
Excerpt: The method used herein to investigate the proteasome stimulating activity of a substance is based on the measurement of the 20S proteasome core activity. To detect this activity, the isolated 20S proteasome reacts with an oligopeptide, which is bound to a fluorochrome. With its chymotrypsin-like proteolytic activity, the proteasome degrades the oligopeptide and liberates the fluorochrome. For this assay 4-methyl-coumaryl-amide (MCA) was used as fluorochrome. Liberation of MCA correlates linearly with the proteasome activity. MCA wass detected using an excitation of 360 nm and an emission of 460 nm.
For interpretation, the measured proteasome activities / intensities of fluorescence were compared with pure MCA standards at distinct concentrations.
Two different controls were used for each assay. One "ordinary" control (C) which consisted of isolated proteasome alone, and a DMSO-control (DC). DC was necessary because all substances were diluted in DMSO. Proteasome activity was calculated relative to DMSO control (0 mM). Table Example 3.1: Measurement of proteasome activity of BIO1272 using isolated proteasome (mean values of 3 independent tests)

proteasome = biological target: T1, proteasome (Homo sapiens, UniProt P28074); assay: Measurement of proteasome activity using cell lysates (HaCaT cells, MCA liberation); assay type: biochemical; conditions: HaCaT cell lysate, relative to DMSO control (0 mM = 100 %), mean values of 3 independent tests
T1 construct: endogenous in cells; host or cells: HaCaT human keratinocytes (cell lysate)
Procedure: To determine proteasome activity in cell lysate, human keratinocyte cell lines (HaCaT cells) were seeded out in Petri-dishes (area: 22.1 cm^2) and harvested when they reached confluence. Isolation of the pure cell lysate included cell washing, incubation and homogenization in lysis buffer (250mM sucrose, 25mM HEPES (4-(2-hydroxyethyl)-1-piperazineethanesulfonic acid), 10mM MgCl2*6H2O, 1.3mM EDTA) and final cell lysis with liquid nitrogen. Determination of proteasome activity is based on the liberation of MCA and the corresponding fluorescence like described above in example 3.1. Proteasome activity was calculated relative to DMSO control (0 mM). Table Example 3.2: Measurement of proteasome activity of BIO1272 using cellular extracts (mean values of 3 independent tests)

yeast = conditions: cited from earlier work
fish = conditions: cited from earlier work

Compound: CCC(C)NC(=O)OC1CCCC(C)C1C (stereo not shown) [BIO1845, sec-Butyl-carbamic acid 2,3-dimethyl-cyclohexyl ester]
- Stimulation of SIRT1 expression (SIRT1): 52%

Compound: CC(C)NC(=O)O[C@@H]1C[C@H](C)CC[C@H]1C(C)C [BIO1272, Isopropyl-carbamic acid (1R,2S,5R)-2-isopropyl-5-methyl-cyclohexyl ester]
- Relative proteasome activity [%] (isolated 20S proteasome; 5mM BIO1272, relative to DMSO control (0 mM = 100 %)): 125%
- Relative proteasome activity [%] (isolated 20S proteasome; 10mM BIO1272, relative to DMSO control (0 mM = 100 %)): 210%
- Relative proteasome activity [%] (isolated 20S proteasome; 20mM BIO1272, relative to DMSO control (0 mM = 100 %)): 250%
- Relative proteasome activity [%] (proteasome; 5mM BIO1272): 105%
- Relative proteasome activity [%] (proteasome; 10mM BIO1272): 120%
- Relative proteasome activity [%] (proteasome; 20mM BIO1272): 140%

Compound: Oc1ccc(C=Cc2cc(O)cc(O)c2)cc1 [Resveratrol]
- extending lifespan (yeast): 70%
- extending lifespan (fish): 60%

Compound: CC(C)[C@@H]1CC[C@@H](C)C[C@H]1OC(=O)Nc1ccccc1 [BIO1580, Phenyl-carbamic acid (1R,2S,5R)-2-isopropyl-5-methyl-cyclohexyl ester]
- Stimulation of SIRT1 expression (SIRT1): 117%

Compound: CCCCCCNC(=O)O[C@@H]1C[C@H](C)CC[C@H]1C(C)C [BIO1271, Hexyl-carbamic acid (1R,2S,5R)-2-isopropyl-5-methyl-cyclohexyl ester]
- Stimulation of SIRT1 expression (SIRT1): 66%

Compound: CCCCNC(=O)OC1CCCCC1C(C)C (stereo not shown) [BIO1841, n-Butyl-carbamic acid 2-isopropyl-cyclohexyl ester]
- Stimulation of SIRT1 expression (SIRT1): 14%

Compound: CCc1ccc(NC(=O)OC2CC(C)CC(C)C2)cc1 (stereo not shown) [BIO1823, (4-Ethyl-phenyl)-carbamic acid 3,5-dimethyl-cyclohexyl ester]
- Stimulation of SIRT1 expression (SIRT1): 66%

Compound: CCCCNC(=O)O[C@@H]1C[C@H](C)CC[C@H]1C(C)C [BIO1267, n-Butyl-carbamic acid (1R,2S,5R)-2-isopropyl-5-methyl-cyclohexyl ester]
- Stimulation of SIRT1 expression (SIRT1): 29%

Compound: CCCCNC(=O)OC1C(C)CCC(C)C1C (stereo not shown) [BIO1617, n-Butyl-carbamic acid 2,3,6-trimethyl-cyclohexyl ester]
- Stimulation of SIRT1 expression (SIRT1): 24%

Compound: CCCCNC(=O)O[C@H]1C[C@@H](C)CC[C@@H]1C(C)C [BIO1860, Butyl-carbamic acid (1S,2R,5S)-2-isopropyl-5-methyl-cyclohexyl ester]
- Stimulation of SIRT1 expression (SIRT1): 47%
